The nature of series [1]: Pharmacokinetic oral gavage experiment in rats (serum spilanthol, one compartmental model). The settings on record: for half-life: 1.5 ml of 0.73 mg spilanthol/g dose solution, read-out: elimination half-life (converted). It is filed as in vivo, Wistar rats. As to the method:
The Wistar rats were bred in Bharat Serum and Vaccines pvt. Ltd, Thane, India (registration number 103/99/CPCSEA) and kept for the experiments at C. U. Shah College of Pharmacy, SNDT Women’s University, Santacruz, Mumbai, India (registration number 39/99/CPCSEA). The half of the rats used in the experiment were female rats and the other half male rats. Rats of 7-8 weeks old, weighing 220 g, and fasted overnight were used for the experiment.
The pharmacokinetic oral gavage experiment was carried out at C. U. Shah College of Pharmacy, SNDT Women’s University, Santacruz, Mumbai, India. A spilanthol dose solution was prepared with the Spilanthes acmella (L.) L. extract (A.Vogel). 1.5 ml of a spilanthol dose solution of 0.73 mg spilanthol/g dose solution in 10:20:30:40 (w/w/w/w) ethanol:PG:vitamin E-TPGS:PEG400 was administered to the rats using a gavage needle made up of stainless steel (length 3 inches and 2.5 mm internal diameter). A blank dose solution was used as well, containing ethanol, PG, vitamin E-TPGS and PEG without spilanthol. For each dose solution, six rats were used of which three were females and three males. Blood was collected (1.5 ml) from the retro orbital vein at specified time points i.e. 1, 2, 3, 4, 6, and 8 h after oral administration of the dose solution. The collected blood samples were centrifuged using a Remi R-24 centrifuge. At the end of the study, the animals were sacrificed by CO2 inhalation. All samples were immediately frozen at -80 °C until bio-analysis. The elimination rate constant was calculated using a one compartmental model using GraphPad software (La Jolla, USA), using the following equation: Ct=C0×e^−ke×t , in which t is time (h), C0 the concentration of spilanthol at time t = 0 (ng/ml), C(t) the concentration of spilanthol at time t and ke the elimination rate constant (h^−1). The elimination half-life (h) is computed as ln(2)/ke.
60 μl of the serum samples, 60 μl of 4 % (V/V) aqueous H3PO4 solution and 30 μl of the IS solution were transferred into a 0.5 ml (LoBind Eppendorf) tube and vortexed. Interfering compounds were removed by solid phase extraction using a positive pressure-96 processor (Waters). […] After the loading step, the HLB Oasis® μelution plate was washed using 200 μl of 5 % MeOH in H2O followed by 200 μl of 20 % MeOH in H2O. Spilanthol was eluted using two times 25 μl ACN. To the eluate, 25 μl of a 80:20 (V/V) H2O:MeOH solution was added and analysed with a UPLC-MS^2 method, as further described.

Details of series [2]: method as in PMID 20227845, PMID 19808085, PMID 23583736. The settings on record: porcine buccal mucosa; cited from earlier work.
A short description of series [3]: Serum elimination kinetics in the mice MTR model after intravenous injection. The class given is in vivo, ICR-CD-1 mice.
Details of series [4]: method as in PMID 24055064. The settings on record: source not stated; cited from earlier work.
The test system of series [5] is blood-brain barrier. As to the kind of experiment: Brain-to-blood transport after intracerebroventricular injection. The class given is in vivo, ICR-CD-1 mice. The settings on record: mice, ICV injection of 1 μl of 4 mg/ml dose solution. As to the method:
(§1) To evaluate the efflux of spilanthol out of the brain, an in vivo method previously described was used. Briefly, after anesthetizing the ICR-CD-1 mice using a 40 % (w/V) urethane solution (3 g/kg), the skin of the skull was removed. Thereafter, a hole was made into the lateral ventricle using a 22 G needle marked with tape at 2 mm at the following coordinates: 1 mm lateral and 0.34 mm posterior to the bregma. 1 μl of the 4 mg/ml spilanthol dose solution as used for the blood-to-brain influx experiment was injected intracerebroventriculary (ICV) using a syringe pump (KDS100, KR analytical, Cheshire, UK) at a speed of 360 μl/h for 10 s. […] Prior to decapitation, blood was collected from the abdominal aorta. Serum was obtained by centrifuging the blood at 10 000 g during 15 min at 21 °C and brains were collected. The efflux brain half-life (t1/2,brain) (min) was calculated from the linear regression of the natural logarithm of the spilanthol concentration in brain (ng/g) versus time as follows: t1/2,brain = ln(2)/kout, where kout (min^−1) is defined as the efflux rate constant calculated as the negative value of the slope of the linear regression, applying first order kinetics.

Assay in series [6]: as above
The class given is in vivo, ICR-CD-1 mice. Conditions: female, ICR-CD-1, mouse, icv or intrathecal, 4 μg per mouse; mice, ICV injection, ln(2)/kout; read-out: efflux brain half-life t1/2,brain. On the procedure:
as §1

Series [7] has as its system blood-brain barrier. Briefly: Blood-to-brain transport, in vivo multiple time regression (MTR) analysis. Conditions: mice.
Procedure: Female, Institute for Cancer Research, Caesarean Derived-1 (ICR-CD-1) mice (Harlan Laboratories, Venray, Netherlands) of age 7–10 weeks and weighing 29–32 g, were used during the BBB transport experiments.
An in vivo multiple time regression (MTR) analysis was performed to investigate if spilanthol was able to cross the BBB. A dose solution of spilanthol was prepared using the Spilanthes acmella (L.) L. extract (Robertet) with a final concentration of 4 mg/ml spilanthol dissolved in 7.0 % ethanol, 2.5 % dimethylacetamide, 0.6 % tween 80 (all w/w) diluted in lactated Ringer’s solution containing 1 % BSA. The ICR-CD-1 mice were anesthetized by intraperitoneal injection with a 40 % (w/V) urethane solution (3 g/kg) and the jugular internalis vein and carotid artery were isolated, 20 μl of the spilanthol dose solution was injected into the jugular vein. Blood was obtained from the carotid artery at regular time points after injection (1, 3, 5, 10, 12.5 and 15 min, with start and end in duplicate), and the mice were immediately thereafter decapitated. After sacrificing the mice, the brains were collected. The collected blood from the carotid artery was centrifuged at 10 000 g for 15 min at 21 °C, resulting in serum. […]

For `C/C=C/C=C\CC/C=C/C(=O)NCC(C)C` [spilanthol, deca-2E,6Z,8E-trienoic acid isobutylamide], the k el in series [1] (both sexes, Wistar, rat, serum, po, 0.73 mg, oral gavage of 1.5 ml of 0.73 mg spilanthol/g dose solution (A. Vogel extract), one compartmental model, read-out: elimination rate constant ke (converted)) was 0.000167 s⁻¹; in series [3] (female, ICR-CD-1, iv, 80 μg per mouse, mouse serum, i.v., one compartmental model, read-out: elimination rate constant (converted)), 0.00367 s⁻¹. For the same compound, the half-life was 63 min in series [1] (both sexes, Wistar, rat, serum, po, oral gavage (discussion, in brackets)); 67.8 min in series [1] (both sexes, Wistar, rat, serum, po, oral gavage, ln(2)/ke); 3.16 min in series [3] (female, ICR-CD-1, iv, 80 μg per mouse, mouse serum, i.v.); 6.4 min in series [6]. In series [1] (rat serum, oral gavage of 1.5 ml of 0.73 mg spilanthol/g dose solution (A. Vogel extract), one compartmental model), the “elimination rate constant ke” value stood at 0.61 h⁻¹. Further, the “permeability coefficient Kp,aq” value in series [2] is 3.14 ×10⁻⁶ cm/s. The “concentration of spilanthol at time zero in serum” value in series [3] (mice, i.v. 20 μl of 4 mg/ml, one compartmental model) was determined as 3050 ng/mL. Also, the LogP in series [4] is 3.39. Further, the “efflux transfer constant kout” value in series [5] is 0.11 min⁻¹. Moreover, the “toxicity during the experiment” value in series [7] (i.v. spilanthol dose solution with ethanol, dimethylacetamide, tween 80) is given as “no toxicity was observed”. The “exposure time at which brain/serum ratio curve reached a plateau-phase” value in series [7] (i.v., MTR) is reported as “about 10 min”.

(Values after publication PMC4907212, “Mucosal and blood-brain barrier transport kinetics of the plant N-alkylamide spilanthol using in vitro and in vivo models” (BMC Complementary and Alternative Medicine, 2016).)
